Reference: patent publication US20260262643A1, “HERBICIDAL BENZOXAZINES” (FMC CORPORATION, priority 2022, published 2026)
Like-named read-outs stand apart in the source and are kept apart here.

What was measured:
blackgrass [1] = assay: Test A preemergence; assay type: in vivo, Alopecurus myosuroides; details: Alopecurus myosuroides, pre-emergence, 240 h, read-out: Plant response rating, Blackgrass; for pest or weed control at 125 g/ha: 125 g ai/ha; for pest or weed control at 500 g/ha: 500 g ai/ha
In short: (§1)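 Plants were grown in loam and sand and treated preemergence or postemergence (one- to two-leaf stage, 2–10 cm) with compound in solvent plus surfactant. Response was scored against untreated controls after 10 greenhouse days, where 0 means no effect and 100 complete control.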

goosegrass [2] = assay: Test A preemergence; assay type: in vivo, Eleusine indica; details: Eleusine indica, pre-emergence, 240 h, read-out: Plant response rating, Goosegrass; for pest or weed control at 125 g/ha: 125 g ai/ha; for pest or weed control at 500 g/ha: 500 g ai/ha
In short: as §1

kochia = assay: Test A preemergence; assay type: in vivo, Bassia scoparia; details: Bassia scoparia, pre-emergence, 240 h, read-out: Plant response rating, Kochia; for pest or weed control at 125 g/ha: 125 g ai/ha; for pest or weed control at 500 g/ha: 500 g ai/ha
In short: as §1

pigweed, palmer [3] = assay: Test A preemergence; assay type: in vivo, Amaranthus palmeri; details: Amaranthus palmeri, pre-emergence, 240 h, read-out: Plant response rating, Pigweed, Palmer; for pest or weed control at 125 g/ha: 125 g ai/ha; for pest or weed control at 500 g/ha: 500 g ai/ha
In short: as §1

ryegrass, Italian = assay: Test A preemergence; assay type: in vivo, Lolium multiflorum; details: Lolium multiflorum, pre-emergence, 240 h, read-out: Plant response rating, Ryegrass, Italian; for pest or weed control at 125 g/ha: 125 g ai/ha; for pest or weed control at 500 g/ha: 500 g ai/ha
In short: as §1

soybean = assay: Test A preemergence; assay type: in vivo, Glycine max; details: Glycine max, pre-emergence, 240 h, read-out: Plant response rating, Soybean; for plant injury at 125 g/ha: 125 g ai/ha; for plant injury at 500 g/ha: 500 g ai/ha
In short: as §1

blackgrass [4] = assay: Test A postemergence; assay type: in vivo, Alopecurus myosuroides; details: Alopecurus myosuroides, post-emergence, 240 h, postemergence, 10 days, 0 to 100 scale (0 no effect, 100 complete control); for pest or weed control at 125 g/ha: 125 g ai/ha, read-out: Blackgrass plant response rating; for pest or weed control at 500 g/ha: 500 g ai/ha, visual injury, read-out: Plant response rating, Blackgrass
In short: as §1

goosegrass [5] = assay: Test A postemergence; assay type: in vivo, Eleusine indica; details: Eleusine indica, post-emergence, 240 h, postemergence, 10 days, 0 to 100 scale (0 no effect, 100 complete control); for pest or weed control at 125 g/ha: 125 g ai/ha, read-out: Goosegrass plant response rating; for pest or weed control at 500 g/ha: 500 g ai/ha, visual injury, read-out: Plant response rating, Goosegrass
In short: as §1

oat, wild = assay: Test A postemergence; assay type: in vivo, Avena fatua; details: Avena fatua, post-emergence, 240 h, postemergence, 10 days, 0 to 100 scale (0 no effect, 100 complete control); for pest or weed control at 125 g/ha: 125 g ai/ha, read-out: Oat, Wild plant response rating; for pest or weed control at 500 g/ha: 500 g ai/ha, visual injury, read-out: Plant response rating, Oat, Wild
In short: as §1

pigweed, palmer [6] = assay: Test A postemergence; assay type: in vivo, Amaranthus palmeri; details: Amaranthus palmeri, post-emergence, 240 h, postemergence, 10 days, 0 to 100 scale (0 no effect, 100 complete control); for pest or weed control at 125 g/ha: 125 g ai/ha, read-out: Pigweed, Palmer plant response rating; for pest or weed control at 500 g/ha: 500 g ai/ha, visual injury, read-out: Plant response rating, Pigweed, Palmer
In short: as §1

ragweed = assay: Test A postemergence; assay type: in vivo, Ambrosia artemisiifolia; details: Ambrosia artemisiifolia, post-emergence, 240 h, postemergence, 10 days, 0 to 100 scale (0 no effect, 100 complete control); for pest or weed control at 125 g/ha: 125 g ai/ha, read-out: Ragweed plant response rating; for pest or weed control at 500 g/ha: 500 g ai/ha, visual injury, read-out: Plant response rating, Ragweed
In short: as §1

horseweed = assay: Test A postemergence; assay type: in vivo, Erigeron canadensis; details: Erigeron canadensis, post-emergence, 240 h, postemergence, 10 days, 0 to 100 scale (0 no effect, 100 complete control); for pest or weed control at 125 g/ha: 125 g ai/ha, read-out: Horseweed plant response rating; for pest or weed control at 500 g/ha: 500 g ai/ha, visual injury, read-out: Plant response rating, Horseweed
In short: as §1

sedge, umbrella = assay: Test B flooded paddy test; assay type: in vivo, Cyperus difformis; details: Cyperus difformis, 312 h; 250 g ai/ha, Flood, 13 days, 0 to 100 scale (0 no effect, 100 complete control); read-out: Plant response rating, Sedge, Umbrella
In short: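 2-leaf stage; pots flooded 3 cm over soil; compound dosed into paddy water; depth kept constant. Greenhouse, 13 d. Visual rating vs controls, 0 (no effect)–100 (complete control). Dash = no result.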

[7] = visual injury after 10 days, 0 to 100 scale, 0 is no effect, 100 is complete control
[8] = 0 to 100 scale (0 no effect, 100 complete control), 10 days

Structure (SMILES) | pest or weed control at 125 g/ha (blackgrass [1]; [7]) | pest or weed control at 500 g/ha (blackgrass [1]; [8]) | pest or weed control at 125 g/ha (goosegrass [2]; [7]) | pest or weed control at 125 g/ha (kochia; [7]) | pest or weed control at 125 g/ha (pigweed, palmer [3]; [7]) | pest or weed control at 125 g/ha (ryegrass, Italian; [7]) | plant injury at 125 g/ha (soybean; [7]) | pest or weed control at 125 g/ha (blackgrass [4]) | pest or weed control at 500 g/ha (blackgrass [4]) | pest or weed control at 125 g/ha (goosegrass [5]) | pest or weed control at 500 g/ha (goosegrass [5]) | pest or weed control at 125 g/ha (oat, wild) | pest or weed control at 500 g/ha (oat, wild) | pest or weed control at 125 g/ha (pigweed, palmer [6]) | pest or weed control at 500 g/ha (pigweed, palmer [6]) | pest or weed control at 125 g/ha (ragweed) | pest or weed control at 500 g/ha (ragweed) | pest or weed control at 125 g/ha (horseweed) | pest or weed control at 500 g/ha (horseweed) | pest or weed control at 250 g/ha (sedge, umbrella) | also measured
CCc1ccc(-n2cnc(C(C)C)n2)cc1C(=O)N1C[C@H](C)Oc2c(Cl)cccc21 [Compound 94, [(2S)-8-Chloro-2,3-dihydro-2-methyl-4H-1,4-benzoxazin-4-yl][2-ethyl-5-[3-(1-methylethyl)-1H-1,2,4-triazol-1-yl]phenyl]methanone] | 90% | 90% | 100% | 90% | 100% | 90% | 50% | 60% | 90% | 60% | 90% | 80% | 80% | 90% | 90% | 50% | 50% | 0% | 50% | 98% | pest or weed control at 500 g/ha (goosegrass [2]; [8]): 100%; pest or weed control at 500 g/ha (kochia; [8]): 100%; pest or weed control at 500 g/ha (pigweed, palmer [3]; [8]): 100%; pest or weed control at 500 g/ha (ryegrass, Italian; [8]): 100%; plant injury at 500 g/ha (soybean; [8]): 100%
Cc1ccc(-n2cnc(C3CCC3)n2)cc1C(=O)N1C[C@H](C)Oc2c(Cl)cccc21 [Compound 96, [(2S)-8-Chloro-2,3-dihydro-2-methyl-4H-1,4-benzoxazin-4-yl][5-(3-cyclobutyl-1H-1,2,4-triazol-1-yl)-2-methylphenyl]methanone] | 40% | 80% | 100% | 30% | 100% | 100% | 50% | 50% | 90% | 30% | 60% | 30% | 80% | 90% | 90% | 60% | 70% | 40% | 80% | 98% | pest or weed control at 500 g/ha (goosegrass [2]; [8]): 100%; pest or weed control at 500 g/ha (kochia; [8]): 100%; pest or weed control at 500 g/ha (pigweed, palmer [3]; [8]): 100%; pest or weed control at 500 g/ha (ryegrass, Italian; [8]): 100%; plant injury at 500 g/ha (soybean; [8]): 50%
COCc1ncn(-c2cccc(C(=O)N3C[C@H](C)Oc4c(C)cccc43)c2)n1 [Compound 101, [(2S)-2,3-Dihydro-2,8-dimethyl-4H-1,4-benzoxazin-4-yl][3-[3-(methoxymethyl)-1H-1,2,4-triazol-1-yl]phenyl]methanone] | 50% | 90% | 90% | 20% | 90% | 80% | 20% | 70% | 100% | 50% | 80% | 40% | 90% | 50% | 60% | 50% | 50% | 0% | 30% | 85% | pest or weed control at 500 g/ha (goosegrass [2]; [8]): 100%; pest or weed control at 500 g/ha (kochia; [8]): 90%; pest or weed control at 500 g/ha (pigweed, palmer [3]; [8]): 100%; pest or weed control at 500 g/ha (ryegrass, Italian; [8]): 90%; plant injury at 500 g/ha (soybean; [8]): 40%
Cc1cccc2c1O[C@@H](C)CN2C(=O)c1cccc(-n2cnn(C)c2=O)c1 [Compound 117, 4-[3-[[(2S)-2,3-Dihydro-2,8-dimethyl-4H-1,4-benzoxazin-4-yl]carbonyl]phenyl]-2,4-dihydro-2-methyl-3H-1,2,4-triazol-3-one] | 30% | – | 50% | 0% | 20% | 40% | 30% | 50% | 90% | 30% | 70% | 10% | 40% | 10% | 30% | 0% | 0% | 0% | 10% | 0% | pest or weed control at 500 g/ha (blackgrass [1]; [7]): 90%; pest or weed control at 500 g/ha (goosegrass [2]; [7]): 100%; pest or weed control at 500 g/ha (kochia; [7]): 60%; pest or weed control at 500 g/ha (pigweed, palmer [3]; [7]): 80%; pest or weed control at 500 g/ha (ryegrass, Italian; [7]): 100%; plant injury at 500 g/ha (soybean; [7]): 70%
